From patent publication US7378387B2, “Method of suppressing immune response by reducing intracellular content of glutathione in macrophages and monocytes” (Ajinomoto Co., Inc., priority 1997, dated 2008)

How the values were obtained:
IL-6 = IL-6 production of MΦ after NAC drinking and/or IL-2 administration (Example 8); assay type: in vivo, DBA/2 female mice; settings: stimulated with LPS and IFNγ; control mice 1,240 pg/ml
Procedure: A stimulator was added to 1×10^6 MΦ, and the incubation was conducted at 37° C. for 2 days in a CO2 incubator. After centrifugation, the culture supernatant was collected.
The amount of IL-6 was determined using IL-6 dependent mouse hybridoma MH60 cells (J. Eur. Immunol., vol. 18, p. 951, 1988). One hundred microliters of the culture supernatant were added to 100 μl of the MH60 cell suspension adjusted to 1×10^5 cells/ml in a 10% FCS-containing RPMI medium, and the mixed solution was incubated at 37° C. for 2 days in a CO2 incubator. Subsequently, 10 μl of MTT (supplied by Sigma Co.) solution adjusted to a concentration of 5 mg/ml in the same medium were added thereto, and the reaction was conducted at 37° C. for 5 hours. […] Immediately after the dissolution, an absorbance of 570 nm was measured with an immunometer (supplied by Bio-Rad).
Two groups, namely, a group of 8-week-old DBA/2 female mice which were caused to freely drink city water as in Example 6, and a group of the same female mice which were caused to freely drink city water containing 1 mg/ml of NAC, were prepared. […] On day 14, the IL-12 production from MΦ was measured in the same manner as in Example 6.
Peritoneal cells were harvested from four groups of the mice, and stimulated with LPS and IFNγ. Then, the NO production, the IL-6 production and the IL-12 production were measured.

IL-12 = IL-12 production by MΦ induced by intraperitoneal injection of substances (Example 7); assay type: in vivo, mouse
Procedure: The amount of IL-12 was determined through bioassay using cells of human T cell strain 2D6 (J. Leukocyte Biology, vol. 61, p. 346, 1997).
2D6 cells which had been incubated in an RPMI 1640 medium containing 500 pg/ml of recombinant human IL-12, 50 μM of 2-mercaptoethanol and 10% FCS (fetal calf serum) were moved to a tube, and centrifugally washed three times with the above-mentioned medium without IL-12 and cell density was adjusted to 1×10^5/ml. The cell suspension was added in an amount of 100 μl each to a 96-well flat bottom plate containing a sample serially diluted in advance with an RPMI 1640 medium containing 50 μM of 2-mercaptoethanol and 10% FCS in an amount of 100 μl each. Subsequently, the mixture was charged into a 5% […] incubator of 37° C., and incubated for 48 hours. For final 6 hours, ^3H-TdR was pulsed (a substance adjusted to 370 kBq/ml in an RPMI 1640 medium containing 50 μM of 2-mercaptoethanol and 10% FCS was added in an amount of 50 μl each). The cells a harvested, and the radioactivity was measured using a β counter (Matrix 96, supplied by Packard).
It was examined whether there is a difference in the IL-12 production between LNT-induced MΦ and LPS-induced MΦ. […] Next, the same analysis was conducted using MΦ induced by intraperitoneally injecting substances for changing the GSH content in cells.

| Compound | amount of IL-6 in the macrophage culture supernatant (IL-6) [pg/mL] | IL-12 production (IL-12; MΦ induced by intraperitoneal injection of the substance, stimulation with LPS and IFNγ) | IL-12 production of substance-induced MΦ, without DEM or IL-4 (IL-12; baseline values of the DEM and IL-4 experiments) [pg/mL] |
| --- | --- | --- | --- |
| CC(=O)N[C@@H](CS)C(=O)O [NAC, N-acetylcysteine, reference compound] | 320 | – | – |
| CCOC(=O)CNC(=O)[C@H](CS)NC(=O)CC[C@H](N)C(=O)O [GSH-OEt, glutathione monoethyl ester] | – | 3,570 pg/ml | 490 |
